Each structure is given as a SMILES string. Like-named read-outs stand apart in the source and are kept apart here.

Consider four compounds from patent publication EP1289507B1, “USE OF AN ALDOSTERONE ANTAGONIST FOR THE TREATMENT OR PROPHYLAXIS OF ALDOSTERONE-MEDIATED PATHOGENIC EFFECTS” (priority 2000, dated 2001).

Data set [1] has as its system captopril-treated, saline-drinking SHRSP. In words: Protocol 2: Angiotensin II-induced renal damage in captopril-treated saline-drinking SHRSP. The data set is classed as in vivo, male SHRSP/A3N. How it is done:
Animals. Studies were conducted in accordance with institutional guidelines using male SHRSP/A3N (generations F-75 to F-78), n = 37, from our local colony. These animals were bred from NIH stock, derived from the SHRSP/A3N substrain described originally by Okamoto and coworkers (Okamoto K et al. Circ. Res. 34 and 35 (suppl I):I-143-I-153.). All animals were housed in a room maintained on a 12:12-h light:dark-cycle and an ambient temperature of 22 ± 1°C in the Animal Care Facility at New York Medical College. Rats were weaned at 4 weeks of age and allowed free access to Purina Lab Chow 5001 (Ralston Purina, St. Louis, MO) and tap water until the initiation of experimental protocols.
SHRSP were placed on Stroke-Prone Rodent Diet (#39-288, Zeigler Bros Inc., Gardners, PA) and 1% NaCl drinking solution ad libitum starting at 8.3 weeks of age. […] Animals were handled and weighed daily. Urine samples were collected for the assessment of proteinuria. Systolic blood pressure and heart rate were measured each week. After 2 weeks of treatment, animals were decapitated, trunk blood was collected into chilled EDTA tubes, and the kidneys were removed, blotted dry, and immediately weighed. Coronal sections of kidney were fixed and later processed for light microscopic evaluation.
Assays and Analyses. Systolic blood pressure and heart rate of awake animals were measured by tail-cuff plethysmography using a Natsume KN-210 manometer and tachometer (Peninsula Laboratories Inc., Belmont, CA). Rats were warmed at 37°C for 10 min and allowed to rest quietly in a Lucite chamber before measurement of blood pressure. Measurements of urine volume were made gravimetrically. Urinary protein concentration was determined by the sulfosalicylic acid turbidity method. Plasma aldosterone was measured by radioimmunoassay using ^125I-aldosterone as a tracer (Coat-a Count Aldosterone, Diagnostic Products Co., Los Angeles, CA).
Histology. Kidneys were preserved in 10% phosphate-buffered formalin. Coronal sections (2-3 µm) were stained with hematoxylin and eosin and examined by light microscopy in a blinded fashion as previously described (Stier CT et al. J Pharmacol Exp Ther (1992) 260:1410-1415). Glomerular damage was categorized as ischemic or thrombotic. Ischemic lesions were defined as retraction of glomerular capillary tufts with or without appreciable mesangiolysis. Glomerular thrombotic lesions were defined as any one of a combination of the following: segmental to global fibrinoid necrosis, focal thrombosis of glomerular capillaries, swelling and proliferation of intracapillary (endothelial and mesangial) and/or extracapillary cells (crescents), and expansion of reticulated mesangial matrix with or without significant hypercellularity. […] Vascular thrombotic lesions were defined as any one or a combination of the following: mural fibrinoid necrosis, extravasation and fragmentation of red blood cells, and luminal and/or mural thrombosis. Proliferative arteriopathy was characterized by proliferation of markedly swollen myointimal cells with swollen round to ovoid vesicular nuclei surrounded by mucinous extracellular matrix ("onion skinning") often resulting in nodular thickening. Vascular damage was expressed as the number of arteries and arterioles with lesions per 100 glomeruli. The presence of casts and tubular (ischemic) retraction and simplification was assessed semiquantitatively.
Statistical Analysis. Significant effects with respect to treatment and time were determined by two-way analysis of variance. Data with only one grouping variable were analyzed statistically by Student's unpaired t tests. When more than two groups were compared, one-way analysis of variance was performed followed by the post-hoc Newman-Keul's multiple comparison test. Data were analyzed using version 2.01 of the GraphPad Prism statistical software package (GraphPad Software Inc., San Diego, CA). P < .05 was considered statistically significant. Data are reported as mean ± SEM.

The test system of data set [2] is patients with severe heart failure. The note with it: NYHA Functional Class IV, enalapril plus diuretics compared to placebo plus diuretics; cited from earlier work.
Data set [3] can be described thus: Physical stability of solid state forms. The note with it: at temperatures below the enantiotropic transition temperature. The format is physicochemical.
In data set [4] the test system is patients with severe heart failure. The note with it: added to ACE inhibitor plus loop diuretic; cited from earlier work.
In data set [5] the test system is patients with hypertension. In words: Clinical efficacy in hypertension: randomized double-blind study, cuff and ambulatory blood pressure. The format is in vivo. The note with it: 100 mg/day (50 BID). The method, then:
A multicenter, randomized, double-blind, parallel group study was conducted in patients with hypertension. […] The study consisted of a two-week pretreatment period for completion of screening procedures and discontinuation of any current antihypertensive medication(s). The screening period was followed by a four-week single-blind placebo lead-in treatment period.
The primary efficacy measure was the change from baseline in cuff diastolic blood pressure measured at trough as compared to placebo. Secondary efficacy measures included changes in cuff assessed trough systolic blood pressure and changes in average 24-hour diastolic and systolic blood pressure assessed by ambulatory blood pressure monitoring. Safety was assessed by conducting routine clinical lab tests, physical exams, ECGs, and monitoring for adverse events.

In data set [6] the test system is Volume Expanded Hypertensive Rats. The note with it: averaged for 24 hours after three weeks.

Take `C[C@H](CS)C(=O)N1CCC[C@H]1C(=O)O` [Captopril, captopril, reference compound]: the “Glomerular damage, Ischemic” value in data set [1] (Captopril 50 mg/kg/d + vehicle, or CAP, Angiotensin II 25 ng/min + Eplerenone 100 mg/kg/d, 2 weeks) is recorded as 0 ± 0 lesions/100 glomeruli. Further, in data set [1] (as Table A-8B, 2 weeks), the “Glomerular damage, Thrombotic” value amounted to 0±0 lesions/100 glomeruli; the “Glomerular damage, Total” value worked out at 0±0 lesions/100 glomeruli; the “Renal arteriopathy, Proliferative” value is recorded as 0±0 lesions/100 glomeruli; the “Renal arteriopathy, Thrombotic” value was 0±0 lesions/100 glomeruli. Moreover, in data set [1] (as Table A-8B, 2 weeks), the “Renal arteriopathy, Total” value turned out to be 0±0 lesions/100 glomeruli. In data set [1] (captopril plus vehicle, or captopril plus angiotensin II plus eplerenone), the “tubules with ischemic retraction and simplification” value is listed as “absent”.
Turning to `CCOC(=O)[C@H](CCc1ccccc1)N[C@@H](C)C(=O)N1CCC[C@H]1C(=O)O` [enalapril], the “reduction of mortality at one year” value in data set [2] is reported as 31%.
Turning to `COC(=O)[C@@H]1CC2=CC(=O)CC[C@]2(C)[C@@]23O[C@@H]2C[C@@]2(C)[C@@H](CC[C@@]24CCC(=O)O4)[C@H]13` [Form L], the “physical stability relative to Form H” value in data set [3] is given as “greater physical stability”.
Consider `CC(=O)S[C@@H]1CC2=CC(=O)CC[C@]2(C)[C@H]2CC[C@@]3(C)[C@@H](CC[C@@]34CCC(=O)O4)[C@H]12` [Spironolactone, spironolactone, reference compound], for which the morbidity and mortality entry in data set [4] was “reduced morbidity and mortality”. Moreover, in data set [5], the “ABPM DBP, adjusted mean change from baseline to final visit” value was -8.7 mm Hg; the “ABPM SBP, adjusted mean change from baseline to final visit” value was -15.8 mm Hg; the “Cuff DBP, adjusted mean change from baseline to final visit” value is on record as -9.5 mm Hg; the “Cuff SBP, adjusted mean change from baseline to final visit” value is listed as -16.7 mm Hg. The compound further came in with an SAP in data set [6] (100 mg/kg s.c.) of 171 ± 5 mmHg. The compound also showed an SAP in data set [6] (200 mg/kg s.c.) of 170 ± 9 mmHg.
